Where a SMILES comes first, the peptide text is derived from it. The star is where a group is joined. Nicotinoyl(6-CF3) = O=C(c1ccc(C(F)(F)F)nc1)*; X1 = O=C(c1cncc(C(F)(F)F)c1)*; X5 = O=C(c1ccc[n+]([O-])c1)*; Nicotinoyl = O=C(c1cccnc1)*; X2 = O=C(c1cccnc1C(F)(F)F)*; X3 = O=C(c1cccnc1Br)*; X4 = Cc1ccncc1C(=O)*; X6 = O=C(c1cccnc1S)*
Key:
[1] = molecular target: T1, DNA repair protein RAD51 homolog 1 (Homo sapiens) (UniProt Q06609); test: Binding affinity to RAD51 (158 to 180 residues) (unknown origin) assessed as alpha-helical content at 15 uM by circular dichroism spectroscopy (reference value: 26.9%)
T1 sequence (whole entry): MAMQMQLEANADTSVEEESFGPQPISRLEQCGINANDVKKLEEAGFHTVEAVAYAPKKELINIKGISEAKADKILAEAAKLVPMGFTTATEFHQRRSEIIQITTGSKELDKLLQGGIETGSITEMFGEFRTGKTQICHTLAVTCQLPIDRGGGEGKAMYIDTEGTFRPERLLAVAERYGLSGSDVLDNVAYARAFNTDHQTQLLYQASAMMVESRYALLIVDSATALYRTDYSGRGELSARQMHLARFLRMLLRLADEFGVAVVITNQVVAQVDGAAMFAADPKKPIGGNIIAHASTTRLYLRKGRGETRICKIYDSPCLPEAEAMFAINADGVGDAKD

[2] = molecular target: T1, DNA repair protein RAD51 homolog 1 (Homo sapiens); test: Binding affinity to RAD51 (158 to 180 residues) (unknown origin) assessed as quenching rate constant by fluorescence spectroscopy
[3] = molecular target: T1, DNA repair protein RAD51 homolog 1 (Homo sapiens); test: Binding affinity to RAD51 (158 to 180 residues) (unknown origin) assessed as binding constant by fluorescence spectroscopy
[4] = molecular target: T1, DNA repair protein RAD51 homolog 1 (Homo sapiens); test: Binding affinity to RAD51 (158 to 180 residues) (unknown origin) assessed as reduction in fluorescence intensity by fluorescence spectroscopy; details: dose 6-30 µM, DDE = dose-dependent effect
[5] = molecular target: T1, DNA repair protein RAD51 homolog 1 (Homo sapiens); test: Binding affinity to RAD51 (158 to 180 residues) (unknown origin) assessed as beta-sheet content at 15 uM by circular dichroism spectroscopy (reference value: 17.7%)
[6] = molecular target: T1, DNA repair protein RAD51 homolog 1 (Homo sapiens); test: Binding affinity to RAD51 (158 to 180 residues) (unknown origin) assessed as beta-turn content at 15 uM by circular dichroism spectroscopy (reference value: 16.2%)
[7] = molecular target: T1, DNA repair protein RAD51 homolog 1 (Homo sapiens); test: Binding affinity to RAD51 (158 to 180 residues) (unknown origin) assessed as random coil content at 15 uM by circular dichroism spectroscopy (reference value: 39.2%)
HEK293 = test: Cytotoxicity against HEK293 cells assessed as reduction in cell viability at 200 uM; assay type: toxicity, cell-based; details: human, hek293, 200 µM
MCF7 = test: Cytotoxicity against human MCF7 cells assessed as cell viability at 100 uM relative to control; assay type: functional; details: read-out: Activity

| Structure (SMILES) | Activity [1] [%] | Kq [2] | Binding constant [3] | Activity [4] | Activity [5] [%] | Activity [6] [%] | Activity [7] [%] | Activity (HEK293) | viability at 100 µM (MCF7) [%] |
| --- | --- | --- | --- | --- | --- | --- | --- | --- | --- |
| CC(C)C[C@H](NC(=O)[C@@H](N)Cc1ccc(O)cc1)C(=O)N[C@@H](CCC(N)=O)C(=O)N[C@@H](CC(N)=O)C(=O)N[C@H](C(=O)N[C@@H](Cc1ccccc1)C(=O)N[C@@H](CCCCN)C(=O)N[C@H](C(=O)N[C@@H](CO)C(=O)N[C@@H](CCCCN)C(=O)N[C@@H](CCCNC(=N)N)C(=O)N[C@@H](CCC(N)=O)C(=O)N[C@@H](CO)C(=O)N[C@@H](Cc1ccccc1)C(=O)N[C@@H](C)C(=O)N1CCC[C@H]1C(=O)O)C(C)C)[C@@H](C)O (H-YLQNTFKVSKRQSFAP-OH) | 37.1 | 1.13 10^12/M | 0.33 10^4/M | Dde | 18.5 | 26.4 | 18 | Non-Toxic | 90.6 |
| CC(C)C[C@H](NC(=O)[C@H](Cc1ccc(O)cc1)NC(=O)c1cncc(C(F)(F)F)c1)C(=O)N[C@@H](CCC(N)=O)C(=O)N[C@@H](CC(N)=O)C(=O)N[C@H](C(=O)N[C@@H](Cc1ccccc1)C(=O)N[C@@H](CCCCN)C(=O)N[C@H](C(=O)N[C@@H](CO)C(=O)N[C@@H](CCCCN)C(=O)N[C@@H](CCCNC(=N)N)C(=O)N[C@@H](CCC(N)=O)C(=O)N[C@@H](CO)C(=O)N[C@@H](Cc1ccccc1)C(=O)N[C@@H](C)C(=O)N1CCC[C@H]1C(N)=O)C(C)C)[C@@H](C)O (X1-YLQNTFKVSKRQSFAP-NH2) | 46.7 | 1.32 10^12/M | 1.56 10^4/M |  | 13.4 | 16.5 | 23.4 | Non-Toxic | 71 |
| CC(C)C[C@H](NC(=O)[C@H](Cc1ccc(O)cc1)NC(=O)c1cccnc1C(F)(F)F)C(=O)N[C@@H](CCC(N)=O)C(=O)N[C@@H](CC(N)=O)C(=O)N[C@H](C(=O)N[C@@H](Cc1ccccc1)C(=O)N[C@@H](CCCCN)C(=O)N[C@H](C(=O)N[C@@H](CO)C(=O)N[C@@H](CCCCN)C(=O)N[C@@H](CCCNC(=N)N)C(=O)N[C@@H](CCC(N)=O)C(=O)N[C@@H](CO)C(=O)N[C@@H](Cc1ccccc1)C(=O)N[C@@H](C)C(=O)N1CCC[C@H]1C(N)=O)C(C)C)[C@@H](C)O (X2-YLQNTFKVSKRQSFAP-NH2) | 51.3 | 0.61 10^12/M | 4.07 10^4/M |  | 26.3 | 11.6 | 10.8 | Non-Toxic | 81.5 |
| CC(C)C[C@H](NC(=O)[C@H](Cc1ccc(O)cc1)NC(=O)c1ccc[n+]([O-])c1)C(=O)N[C@@H](CCC(N)=O)C(=O)N[C@@H](CC(N)=O)C(=O)N[C@H](C(=O)N[C@@H](Cc1ccccc1)C(=O)N[C@@H](CCCCN)C(=O)N[C@H](C(=O)N[C@@H](CO)C(=O)N[C@@H](CCCCN)C(=O)N[C@@H](CCCNC(=N)N)C(=O)N[C@@H](CCC(N)=O)C(=O)N[C@@H](CO)C(=O)N[C@@H](Cc1ccccc1)C(=O)N[C@@H](C)C(=O)N1CCC[C@H]1C(N)=O)C(C)C)[C@@H](C)O (X5-YLQNTFKVSKRQSFAP-NH2) | 40.6 | 1.34 10^12/M | 0.89 10^4/M |  | 13.2 | 14 | 32.2 |  |  |
| CC(C)C[C@H](NC(=O)[C@H](Cc1ccc(O)cc1)NC(=O)c1ccc(C(F)(F)F)nc1)C(=O)N[C@@H](CCC(N)=O)C(=O)N[C@@H](CC(N)=O)C(=O)N[C@H](C(=O)N[C@@H](Cc1ccccc1)C(=O)N[C@@H](CCCCN)C(=O)N[C@H](C(=O)N[C@@H](CO)C(=O)N[C@@H](CCCCN)C(=O)N[C@@H](CCCNC(=N)N)C(=O)N[C@@H](CCC(N)=O)C(=O)N[C@@H](CO)C(=O)N[C@@H](Cc1ccccc1)C(=O)N[C@@H](C)C(=O)N1CCC[C@H]1C(N)=O)C(C)C)[C@@H](C)O ({Nicotinoyl(6-CF3)}-YLQNTFKVSKRQSFAP-NH2) | 48.3 | 1.24 10^12/M | 1.97 10^4/M |  | 11.2 | 18.4 | 22.1 | Non-Toxic | 79.1 |

Second part, led by results:

| Activity [1] [%] | Kq [2] | Binding constant [3] | Activity [4] | Activity [5] [%] | Activity [6] [%] | Activity [7] [%] | Structure (SMILES) | Activity (HEK293) | viability at 100 µM (MCF7) [%] |
| --- | --- | --- | --- | --- | --- | --- | --- | --- | --- |
| 43.4 | 0.96 10^12/M | 1.26 10^4/M |  | 13.9 | 20.1 | 22.6 | CC(C)C[C@H](NC(=O)[C@H](Cc1ccc(O)cc1)NC(=O)c1cccnc1)C(=O)N[C@@H](CCC(N)=O)C(=O)N[C@@H](CC(N)=O)C(=O)N[C@H](C(=O)N[C@@H](Cc1ccccc1)C(=O)N[C@@H](CCCCN)C(=O)N[C@H](C(=O)N[C@@H](CO)C(=O)N[C@@H](CCCCN)C(=O)N[C@@H](CCCNC(=N)N)C(=O)N[C@@H](CCC(N)=O)C(=O)N[C@@H](CO)C(=O)N[C@@H](Cc1ccccc1)C(=O)N[C@@H](C)C(=O)N1CCC[C@H]1C(N)=O)C(C)C)[C@@H](C)O (Nicotinoyl-YLQNTFKVSKRQSFAP-NH2) | Non-Toxic | 80.9 |
| 37.7 | 1.7 10^12/M | 0.18 10^4/M |  | 13.1 | 21.6 | 27.6 | CC(C)C[C@H](NC(=O)[C@H](Cc1ccc(O)cc1)NC(=O)c1cccnc1Br)C(=O)N[C@@H](CCC(N)=O)C(=O)N[C@@H](CC(N)=O)C(=O)N[C@H](C(=O)N[C@@H](Cc1ccccc1)C(=O)N[C@@H](CCCCN)C(=O)N[C@H](C(=O)N[C@@H](CO)C(=O)N[C@@H](CCCCN)C(=O)N[C@@H](CCCNC(=N)N)C(=O)N[C@@H](CCC(N)=O)C(=O)N[C@@H](CO)C(=O)N[C@@H](Cc1ccccc1)C(=O)N[C@@H](C)C(=O)N1CCC[C@H]1C(N)=O)C(C)C)[C@@H](C)O (X3-YLQNTFKVSKRQSFAP-NH2) |  |  |
| 37.9 | 1.77 10^12/M | 0.76 10^4/M |  | 11.3 | 18.1 | 32.7 | Cc1ccncc1C(=O)N[C@@H](Cc1ccc(O)cc1)C(=O)N[C@@H](CC(C)C)C(=O)N[C@@H](CCC(N)=O)C(=O)N[C@@H](CC(N)=O)C(=O)N[C@H](C(=O)N[C@@H](Cc1ccccc1)C(=O)N[C@@H](CCCCN)C(=O)N[C@H](C(=O)N[C@@H](CO)C(=O)N[C@@H](CCCCN)C(=O)N[C@@H](CCCNC(=N)N)C(=O)N[C@@H](CCC(N)=O)C(=O)N[C@@H](CO)C(=O)N[C@@H](Cc1ccccc1)C(=O)N[C@@H](C)C(=O)N1CCC[C@H]1C(N)=O)C(C)C)[C@@H](C)O (X4-YLQNTFKVSKRQSFAP-NH2) |  |  |
| 36.2 | 5.85 10^12/M | 0.72 10^4/M |  | 10.8 | 28.8 | 24.2 | CC(C)C[C@H](NC(=O)[C@H](Cc1ccc(O)cc1)NC(=O)c1cccnc1S)C(=O)N[C@@H](CCC(N)=O)C(=O)N[C@@H](CC(N)=O)C(=O)N[C@H](C(=O)N[C@@H](Cc1ccccc1)C(=O)N[C@@H](CCCCN)C(=O)N[C@H](C(=O)N[C@@H](CO)C(=O)N[C@@H](CCCCN)C(=O)N[C@@H](CCCNC(=N)N)C(=O)N[C@@H](CCC(N)=O)C(=O)N[C@@H](CO)C(=O)N[C@@H](Cc1ccccc1)C(=O)N[C@@H](C)C(=O)N1CCC[C@H]1C(N)=O)C(C)C)[C@@H](C)O (X6-YLQNTFKVSKRQSFAP-NH2) |  |  |
